ChEMBL document CHEMBL1201862, “PubChem BioAssay data set” (2004)
“And” between values parts separate entries of the source, which are not always exact repeats. Equal entries are not always repeated.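 48-hour exposure; five concentrations; linearly interpolated endpoints. The concentration for 50% growth inhibition is given as GI50.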 The source made the active and inactive calls. No stated cut-off is given here; in the data, active = GI50 up to about 1.1 µM and inactive = higher.

What was measured:
Assay in all cases: NCI tumour cell line growth inhibition, 48 h
[1] = system: UO-31
[2] = system: HCT-116
[3] = system: SF-539
[4] = system: CAKI-1
[5] = system: SNB-19
[6] = system: KM12
[7] = system: MOLT-4
[8] = system: SF-268
[9] = system: NCI-H460
[10] = system: SNB-75
[11] = system: Malme-3M
[12] = system: SK-MEL-28
[13] = system: RPMI-8226
[14] = system: A549
[15] = system: M14
[16] = system: EKVX
[17] = system: SW-620
[18] = system: PC-3
[19] = system: UACC-62
[20] = system: HL-60

SMILES | GI50 [1] | GI50 [2] | GI50 [3] | GI50 [4] | GI50 [5] | GI50 [6] | GI50 [7] | GI50 [8] | GI50 [9] | GI50 [10] | GI50 [11] | GI50 [12] | GI50 [13] | GI50 [14] | GI50 [15] | GI50 [16] | GI50 [17] | GI50 [18] | GI50 [19] | GI50 [20]
N#Cc1c(N)n(C2OC(CO)C(O)C2O)c2ncnc(N)c12 (centres undefined) | 0.0847 µM (active) | 0.0195 µM (active) | 0.118 µM (active) | 0.0463 µM (active) | 0.129 µM (active) | 0.0417 µM (active) | 0.0248 µM (active) | 0.0597 µM (active) | 0.288 µM (active) | 0.0798 µM (active) | 0.0367 µM (active) | 0.119 µM (active) | 0.184 µM (active) | 0.119 µM (active) | 0.0617 µM (active) | 0.135 µM (active) | 0.0228 µM (active) | 0.0245 µM (active) | 0.0168 µM (active) | 
N#CC12CNCC1CN=N2 (centres undefined) | > 100 µM (inactive) | > 100 µM (inactive) |  | > 100 µM (inactive) | > 100 µM (inactive) | > 100 µM (inactive) | > 100 µM (inactive) | > 100 µM (inactive) | > 100 µM (inactive) | > 100 µM (inactive) | > 100 µM (inactive) | > 100 µM (inactive) |  | > 100 µM (inactive) |  | > 100 µM (inactive) | > 100 µM (inactive) | > 100 µM (inactive) | > 100 µM (inactive) | > 100 µM (inactive)
O=C1OC2C(O)C(=O)OC2C1O (centres undefined) | > 100 µM (inactive) | > 100 µM (inactive) | > 100 µM (inactive) | > 100 µM (inactive) | > 100 µM (inactive) | > 100 µM (inactive) | > 100 µM (inactive) | > 100 µM (inactive) | > 100 µM (inactive) | 95.3 µM (inactive) | > 100 µM (inactive) | > 100 µM (inactive) |  | > 100 µM (inactive) | > 100 µM (inactive) | > 100 µM (inactive) | > 100 µM (inactive) | > 100 µM (inactive) | > 100 µM (inactive) | > 100 µM (inactive)
CCOP(=O)(OCC)c1cc2cc(O)ccc2oc1=O | 0.0112 µM (active) | > 100 µM (inactive) | > 100 µM (inactive) | > 100 µM (inactive) | > 100 µM (inactive) | > 100 µM (inactive) |  | > 100 µM (inactive) | > 100 µM (inactive) | > 100 µM (inactive) |  | > 100 µM (inactive) | > 100 µM (inactive) | > 100 µM (inactive) | > 100 µM (inactive) | > 100 µM (inactive) | > 100 µM (inactive) | > 100 µM (inactive) | > 100 µM (inactive) | > 100 µM (inactive)
CC1=CC(c2ccccc2)OP1(=O)c1ccccc1 (centres undefined) |  | > 100 µM (inactive) | > 100 µM (inactive) | > 100 µM (inactive) | > 100 µM (inactive) | > 100 µM (inactive) |  | > 100 µM (inactive) | > 100 µM (inactive) | > 100 µM (inactive) | > 100 µM (inactive) | > 100 µM (inactive) |  | > 100 µM (inactive) | > 100 µM (inactive) | > 100 µM (inactive) | > 100 µM (inactive) | > 100 µM (inactive) | > 100 µM (inactive) | > 100 µM (inactive)
CC1OC2OC3C(OCC(O)C3O)OC(=O)[C@]34CCC(C)(C)CC3C3=CCC5[C@@]6(C)C[C@H](O)[C@H](OC7OC(CO)C(O)C(O)C7OC7OC(COC(=O)CC(C)(O)CC(=O)OC1C(O)C2O)C(O)C(O)C7O)[C@@](C)(CO)C6CC[C@@]5(C)[C@]3(C)CC4 (some centres undefined) | 1.22 µM (inactive) | 1.63 µM (inactive) | 2.56 µM (inactive) | 1.45 µM (inactive) | 1.68 µM (inactive) | 1.48 µM (inactive) | 1.32 µM (inactive) | 1.54 µM (inactive) | 1.8 µM (inactive) | 1.47 µM (inactive) |  | 1.5 µM (inactive) | 1.66 µM (inactive) | 1.32 µM (inactive) | 1.43 µM (inactive) |  | 1.16 µM (inactive) | 1.38 µM (inactive) | 1.56 µM (inactive) | 1.4 µM (inactive)
O=C(CC(=O)N1N=C(N(c2ccccc2)c2ccccc2)CC1c1ccccc1)Nc1cccc(Cl)c1 (centres undefined) | > 100 µM (inactive) | > 100 µM (inactive) | > 100 µM (inactive) | > 100 µM (inactive) | > 100 µM (inactive) | > 100 µM (inactive) | > 100 µM (inactive) | > 100 µM (inactive) | > 100 µM (inactive) | > 100 µM (inactive) |  | > 100 µM (inactive) | > 100 µM (inactive) | > 100 µM (inactive) | > 100 µM (inactive) | > 100 µM (inactive) | > 100 µM (inactive) | > 100 µM (inactive) | > 100 µM (inactive) | > 100 µM (inactive)
COc1cc2c3c(c1OC)C(=O)C(=O)C1=C3N(CCC1)CC2 | 41 µM (inactive) | 18.5 µM (inactive) | 29.6 µM (inactive) | 32.4 µM (inactive) | 63.4 µM (inactive) | 17 µM (inactive) | 18.9 µM (inactive) | 13.2 µM (inactive) | 12.2 µM (inactive) |  |  | 36.9 µM (inactive) |  | 34.8 µM (inactive) | 26.4 µM (inactive) | 17.5 µM (inactive) | 32.4 µM (inactive) | 31.5 µM (inactive) | 18.1 µM (inactive) | 19.1 µM (inactive)
COc1ccc(CCCCl)c(C2=NCCc3ccccc32)c1 | 66.5 µM (inactive) | 29.5 µM (inactive) | 35.8 µM (inactive) | > 100 µM (inactive) | 14.8 µM (inactive) | 27.4 µM (inactive) | 32.4 µM (inactive) | 27.5 µM (inactive) | 36.4 µM (inactive) | 29.1 µM (inactive) |  | > 100 µM (inactive) | 2.99 µM (inactive) | 44.2 µM (inactive) | 71.3 µM (inactive) | 37.7 µM (inactive) | 70.8 µM (inactive) | 19.5 µM (inactive) | 84.5 µM (inactive) | 10.4 µM (inactive)
CC1=CC(=O)/C(=C/NC(N)=S)C(=O)O1 | 38.5 µM (inactive) | > 100 µM (inactive) | > 100 µM (inactive) | > 100 µM (inactive) | 97.1 µM (inactive) | > 100 µM (inactive) | 53.7 µM (inactive) | > 100 µM (inactive) | > 100 µM (inactive) | 48.1 µM (inactive) |  |  |  | > 100 µM (inactive) | > 100 µM (inactive) | > 100 µM (inactive) | > 100 µM (inactive) | > 100 µM (inactive) | > 100 µM (inactive) | 1.72 µM (inactive)
O=C(O)Cc1ccc(Nc2nc3cc(C(F)(F)F)ccc3nc2C(=O)O)cc1 | > 100 µM (inactive) | > 100 µM (inactive) | > 100 µM (inactive) | > 100 µM (inactive) | > 100 µM (inactive) | > 100 µM (inactive) | > 100 µM (inactive) | > 100 µM (inactive) | > 100 µM (inactive) | > 100 µM (inactive) | > 100 µM (inactive) | > 100 µM (inactive) |  | > 100 µM (inactive) | > 100 µM (inactive) | > 100 µM (inactive) | > 100 µM (inactive) | > 100 µM (inactive) | > 100 µM (inactive) | > 100 µM (inactive)
CCOc1ccc(NCc2cc(OC)c(OC)c(OC)c2)cc1 | 9.02 µM (inactive) | 0.533 µM (active) | 0.562 µM (active) |  | 2.88 µM (inactive) | 0.319 µM (active) | 0.822 µM (active) | 3.4 µM (inactive) | 0.614 µM (active) | 1.96 µM (inactive) |  | 2.99 µM (inactive) | 1.58 µM (inactive) | 1.68 µM (inactive) | 0.425 µM (active) | 17.5 µM (inactive) | 0.334 µM (active) | 1.96 µM (inactive) | 0.481 µM (active) | 0.463 µM (active)
CC(=O)OC1CC[C@@]2(C)C(C1)CC(OC(C)=O)[C@@H]1C2CC(OC(C)=O)[C@]2(C)C(C(C)CC=C(c3ccc(Cl)cc3)c3ccc(Cl)cc3)CCC12 (some centres undefined) | 56.2 µM (inactive) | 19.6 µM (inactive) | 67.3 µM (inactive) |  | 58.6 µM (inactive) | 64 µM (inactive) | 20 µM (inactive) | 59.3 µM (inactive) | 26.3 µM (inactive) | 49.5 µM (inactive) |  | > 100 µM (inactive) | 5.33 µM (inactive) | 64 µM (inactive) | 80.4 µM (inactive) | 97.1 µM (inactive) | 49.8 µM (inactive) | 23.6 µM (inactive) |  | 4.7 µM (inactive)
COc1cccc2c1C(=O)c1c(O)c3c(c(O)c1C2=O)C[C@@](O)(C(=O)CO)C[C@@H]3OC1CC(N)C(O)C(C)O1 (some centres undefined) |  | 66.5 nM (active) and 72.6 nM (active) |  | 269 nM (active) and 176 nM (active) | 54.3 nM (active) and 92 nM (active) | 254 nM (active) and 366 nM (active) | 16.9 nM (active) and 10 nM (active) |  |  |  |  |  | 55.3 nM (active) and 43.9 nM (active) | 74.1 nM (active) and 80.2 nM (active) |  | 547 nM (active) and 301 nM (active) | 79.4 nM (active) and 122 nM (active) | 237 nM (active) and 255 nM (active) |  | 60.5 nM (active) and 57 nM (active)
Nc1nc(O)c(Br)c(-c2cccc([N+](=O)[O-])c2)n1 | > 62.1 µM (inactive) | > 100 µM (inactive) | > 58.1 µM (inactive) | 58.5 µM (inactive) | 25.9 µM (inactive) | > 100 µM (inactive) | > 77.4 µM (inactive) | > 82.4 µM (inactive) | > 81.8 µM (inactive) | 55 µM (inactive) |  | > 100 µM (inactive) | 37.8 µM (inactive) | > 46.9 µM (inactive) | > 38.8 µM (inactive) | > 100 µM (inactive) | > 100 µM (inactive) | > 100 µM (inactive) | > 51.9 µM (inactive) | > 71.1 µM (inactive)
